# In patent US20260200850A1, “CRYSTALLINE FORMS OF A PIPERIDINE INHIBITOR OF SLC6A19 FUNCTION” (Jnana Therapeutics Inc., priority 2022, published 2026):
# Assay: Solubility measurements of polymorphic Form I and II in biorelevant fluids
# Type: physicochemical
# Conditions: for solubility at 1.5 h / solubility at 3 h / solubility at 24 h: thermodynamic from solid
# Text: Example 3: Solubility Measurements of Form I and Form II
smiles,measurement,setting,value
"NC(=O)N1CCC[C@@H](N(C(=O)NCc2ccc(OC(F)(F)F)cc2F)C2CC2)C1 [Form II, (R)-3-(1-cyclopropyl-3-(2-fluoro-4-(trifluoromethoxy)benzyl)ureido) piperidine-1-carboxamide]",Solubility,"5% HPBCD/2% TPGS, 25° C., 1.5 h",4310 µg/mL
same,Solubility,"5% HPBCD/2% TPGS, 25° C., 3 h",4270 µg/mL
same,Solubility,"5% HPBCD/2% TPGS, 25° C., 24 h",4760 µg/mL
same,Solubility,"FaSSIF, 37° C., 1.5 h",310 µg/mL
same,Solubility,"FaSSIF, 37° C., 3 h",270 µg/mL
same,Solubility,"FaSSIF, 37° C., 24 h",240 µg/mL
same,solubility at 1.5 h,"FeSSIF, 37 °C, 1.5 h",740 µg/mL
same,solubility at 3 h,"FeSSIF, 37 °C, 3 h",720 µg/mL
same,solubility at 24 h,"FeSSIF, 37 °C, 24 h",720 µg/mL
same,Solubility,"SGF, 37° C., 1.5 h",260 µg/mL
same,Solubility,"SGF, 37° C., 3 h",270 µg/mL
same,Solubility,"SGF, 37° C., 24 h",300 µg/mL
"NC(=O)N1CCC[C@@H](N(C(=O)NCc2ccc(OC(F)(F)F)cc2F)C2CC2)C1 [Form I, (R)-3-(1-cyclopropyl-3-(2-fluoro-4-(trifluoromethoxy)benzyl)ureido) piperidine-1-carboxamide]",solubility at 1.5 h,"5% HPBCD/2% TPGS, 25 °C, aqueous with cosolvent or surfactant or cyclodextrin, 1.5 h",4960 µg/mL
same,solubility at 3 h,"5% HPBCD/2% TPGS, 25 °C, aqueous with cosolvent or surfactant or cyclodextrin, 3 h",5110 µg/mL
same,solubility at 24 h,"5% HPBCD/2% TPGS, 25 °C, aqueous with cosolvent or surfactant or cyclodextrin, 24 h",5280 µg/mL
same,solubility at 1.5 h,"FaSSIF, 37 °C, 1.5 h",360 µg/mL
same,solubility at 3 h,"FaSSIF, 37 °C, 3 h",380 µg/mL
same,solubility at 24 h,"FaSSIF, 37 °C, 24 h",350 µg/mL
same,Solubility,"FeSSIF, 37° C., 1.5 h",910 µg/mL
same,Solubility,"FeSSIF, 37° C., 3 h",900 µg/mL
same,Solubility,"FeSSIF, 37° C., 24 h",980 µg/mL
same,solubility at 1.5 h,"SGF, 37 °C, simulated gastric fluid, 1.5 h",400 µg/mL
same,solubility at 3 h,"SGF, 37 °C, simulated gastric fluid, 3 h",420 µg/mL
same,solubility at 24 h,"SGF, 37 °C, simulated gastric fluid, 24 h",370 µg/mL
same,"Solubility, comparison of the forms","relevant biofluids, in words",increased solubility relative to Form II
